This passage reports MIC, IC50 and inhibition results from ChEMBL document CHEMBL3758177, “Synthesis and biological evaluation of novel phosphoramidate derivatives of coumarin as chitin synthase inhibitors and antifungal agents” (Eur J Med Chem, 2016).

As usually defined, the MIC is the lowest concentration that inhibits growth of the organism. Broadly, the IC50 is the midpoint of a concentration-inhibition curve. Low readings indicate higher potency, high ones lower potency. For orientation: inhibition means the share of the control response that was lost under treatment.

The test system of one assay is Escherichia coli. Kind of assay: Antibacterial activity against Escherichia coli JM 109 after 24 hrs by two-fold serial dilution method. The conditions noted are these: JM 109, 24 h. Type of assay: functional.
The test system of assay [1] is Staphylococcus aureus. Kind of assay: Antibacterial activity against Methicillin-resistant Staphylococcus aureus N 315 after 24 hrs by two-fold serial dilution method. Type of assay: functional. As to conditions: N 315, 24 h.
The next assay concerns Bacillus spizizenii. Kind of assay: Antibacterial activity against Bacillus subtilis ATCC 6633 after 24 hrs by two-fold serial dilution method. Type of assay: functional. The conditions noted are these: ATCC 6633, 24 h.
The next assay deals with Pseudomonas aeruginosa. Kind of assay: Antibacterial activity against Pseudomonas aeruginosa ATCC 9027 after 24 hrs by two-fold serial dilution method. The format is functional. The conditions noted are these: ATCC 9027, 24 h.
The nature of assay [2]: Inhibition of Candida tropicalis ATCC 750 chitin synthase using UDP-GlcNAc as substrate after 60 mins by microplate reader method.
For the next assay, the system named is Proteus vulgaris. Kind of assay: Antibacterial activity against Proteus vulgaris ATCC 8427 after 24 hrs by two-fold serial dilution method. The conditions noted are these: ATCC 8427, 24 h. The format is functional.
The subject of a further assay is Candida albicans. Kind of assay: Antifungal activity against Candida albicans CMCC 76615 after 24 hrs by two-fold serial dilution method. Type of assay: functional. The conditions noted are these: CMCC 76615, 24 h.
The test system of assay [3] is Staphylococcus aureus. Kind of assay: Antibacterial activity against Staphylococcus aureus ATCC 25923 after 24 hrs by two-fold serial dilution method. Type of assay: functional. The conditions noted are these: ATCC 25923, 24 h.
A further assay concerns Aspergillus flavus. Kind of assay: Antifungal activity against Aspergillus flavus ATCC 16870 after 24 hrs by two-fold serial dilution method. The conditions noted are these: ATCC 16870, 24 h. Type of assay: functional.
For another assay, the system named is Cryptococcus neoformans. Kind of assay: Antifungal activity against Cryptococcus neoformans ATCC 32719 after 24 hrs by two-fold serial dilution method. The conditions noted are these: ATCC 32719, 24 h. Type of assay: functional.
For another assay, the system named is Candida tropicalis. Kind of assay: Inhibition of Candida tropicalis ATCC 750 chitin synthase using UDP-GlcNAc as substrate at 300 ug/ml after 60 mins by microplate reader method.
The subject of the next assay is Aspergillus fumigatus. Kind of assay: Antifungal activity against Aspergillus fumigatus GIMCC 3.19 after 24 hrs by two-fold serial dilution method. As to conditions: GIMCC 3.19, 24 h. The format is functional.

Converted amounts (≈) assume the structure as drawn.

On to `COC(=O)C(NP(=O)(OCCN(C)c1cc(=O)oc2ccc(C(C)(C)C)cc12)Oc1ccccc1)C(C)C` (stereo not drawn), for which the minimum inhibitory concentration (MIC) with Escherichia coli was 16 µg/mL (≈ 29.4 µM); in the assay with Staphylococcus aureus [1], 16 µg/mL (≈ 29.4 µM); with Bacillus spizizenii, 16 µg/mL (≈ 29.4 µM); against Pseudomonas aeruginosa, 32 µg/mL (≈ 58.8 µM); in the assay on Proteus vulgaris it was 32 µg/mL (≈ 58.8 µM); with Candida albicans, 64 µg/mL (≈ 118 µM). In addition, the MIC amounted to 32 µg/mL (≈ 58.8 µM) against Staphylococcus aureus [3], 2 µg/mL (≈ 3.67 µM) against Aspergillus flavus, 32 µg/mL (≈ 58.8 µM) against Cryptococcus neoformans and 64 µg/mL (≈ 118 µM) in the assay with Aspergillus fumigatus. In addition, the IC50 in assay [2] is 180 µM. In addition, the inhibition in the assay with Candida tropicalis is 62%.

In the case of `COC(=O)C(NP(=O)(OCCN(C)c1cc(=O)oc2c(C)cccc12)Oc1ccccc1)C(C)C` (stereo not drawn), the MIC against Escherichia coli worked out at 256 µg/mL (≈ 509 µM); in the assay with Staphylococcus aureus [1], 32 µg/mL (≈ 63.7 µM); in the assay on Bacillus spizizenii it was 32 µg/mL (≈ 63.7 µM); in the assay on Pseudomonas aeruginosa, 256 µg/mL (≈ 509 µM); against Proteus vulgaris, 256 µg/mL (≈ 509 µM); in the assay on Candida albicans, 128 µg/mL (≈ 255 µM). Also, the MIC in the assay on Staphylococcus aureus [3], in the assay on Aspergillus flavus, with Cryptococcus neoformans and against Aspergillus fumigatus was 128 µg/mL (≈ 255 µM) throughout. This compound displayed an inhibition with Candida tropicalis of 45%.

As for `NC(=O)OC[C@H](O)[C@@H](O)[C@H](N)C(=O)N[C@H](C(=O)O)[C@H]1O[C@@H](n2cc(CO)c(=O)[nH]c2=O)[C@H](O)[C@@H]1O` [POLYOXIN B], in assay [2], 160 µM corresponded to half-maximal inhibition (IC50). Besides, the MIC in the assay with Candida albicans was found to be 32 µg/mL (≈ 63.1 µM); with Aspergillus flavus it was 64 µg/mL (≈ 126 µM); against Cryptococcus neoformans, 8 µg/mL (≈ 15.8 µM); in the assay with Aspergillus fumigatus, 64 µg/mL (≈ 126 µM). Further, the inhibition in the assay on Candida tropicalis was 82%.

Turning to `COC(=O)C(NP(=O)(OCCN(C)c1cc(=O)oc2ccc(C)cc12)Oc1ccccc1)C(C)C` (stereo not drawn), the minimal inhibitory concentration (MIC) in the assay on Escherichia coli amounted to 16 µg/mL (≈ 31.8 µM); in the assay on Staphylococcus aureus [1], 32 µg/mL (≈ 63.7 µM); against Bacillus spizizenii, 16 µg/mL (≈ 31.8 µM); against Pseudomonas aeruginosa it was 16 µg/mL (≈ 31.8 µM); in the assay with Proteus vulgaris, 32 µg/mL (≈ 63.7 µM); with Candida albicans it was 64 µg/mL (≈ 127 µM). The MIC against Staphylococcus aureus [3] amounted to 16 µg/mL (≈ 31.8 µM); in the assay with Aspergillus flavus, 128 µg/mL (≈ 255 µM); in the assay with Cryptococcus neoformans, 32 µg/mL (≈ 63.7 µM); against Aspergillus fumigatus it was 128 µg/mL (≈ 255 µM). In addition, the inhibition in the assay with Candida tropicalis came to 41%.

In the case of `COC(=O)C(Cc1ccccc1)NP(=O)(OCCN(C)c1cc(=O)oc2c(C)cccc12)Oc1ccccc1` (stereo not drawn), the MIC against Escherichia coli was found to be 256 µg/mL (≈ 465 µM); with Staphylococcus aureus [1], 1 µg/mL (≈ 1.82 µM); against Bacillus spizizenii, 16 µg/mL (≈ 29.1 µM); against Pseudomonas aeruginosa it was 128 µg/mL (≈ 232 µM); with Proteus vulgaris, 256 µg/mL (≈ 465 µM); against Candida albicans, 128 µg/mL (≈ 232 µM). Further, the MIC is 256 µg/mL (≈ 465 µM) with Staphylococcus aureus [3], 64 µg/mL (≈ 116 µM) in the assay on Aspergillus flavus, 64 µg/mL (≈ 116 µM) in the assay with Cryptococcus neoformans and 128 µg/mL (≈ 232 µM) in the assay on Aspergillus fumigatus. The inhibition in the assay on Candida tropicalis stood at 48%.

As to `COC(=O)C(NP(=O)(OCCN(C)c1cc(=O)oc2ccccc12)Oc1ccccc1)C(C)C` (stereo not drawn), the MIC in the assay with Escherichia coli worked out at 512 µg/mL (≈ 1050 µM); with Staphylococcus aureus [1], 256 µg/mL (≈ 524 µM); with Bacillus spizizenii, 128 µg/mL (≈ 262 µM); in the assay with Pseudomonas aeruginosa, 512 µg/mL (≈ 1050 µM); against Proteus vulgaris, 512 µg/mL (≈ 1050 µM); against Candida albicans, 32 µg/mL (≈ 65.5 µM). The minimum inhibitory concentration (MIC) in the assay with Staphylococcus aureus [3] came to 256 µg/mL (≈ 524 µM); with Aspergillus flavus, 16 µg/mL (≈ 32.8 µM); against Cryptococcus neoformans, 64 µg/mL (≈ 131 µM); in the assay with Aspergillus fumigatus, 64 µg/mL (≈ 131 µM). In addition, the IC50 in assay [2] was found to be 380 µM. In addition, in the assay with Candida tropicalis, the inhibition is 54%.

Turning to `COC(=O)C(Cc1ccccc1)NP(=O)(OCCN(C)c1cc(=O)oc2cc(C)ccc12)Oc1ccccc1` (stereo not drawn), the MIC in the assay on Escherichia coli amounted to 16 µg/mL (≈ 29.1 µM); against Staphylococcus aureus [1] it was 2 µg/mL (≈ 3.63 µM); in the assay with Bacillus spizizenii it was 16 µg/mL (≈ 29.1 µM); in the assay with Pseudomonas aeruginosa, 128 µg/mL (≈ 232 µM); in the assay on Proteus vulgaris it was 16 µg/mL (≈ 29.1 µM); in the assay with Candida albicans it was 64 µg/mL (≈ 116 µM). For the same compound, the minimum inhibitory concentration (MIC) in the assay with Staphylococcus aureus [3] is 32 µg/mL (≈ 58.1 µM); against Aspergillus flavus, 1 µg/mL (≈ 1.82 µM); with Cryptococcus neoformans, 32 µg/mL (≈ 58.1 µM); against Aspergillus fumigatus, 64 µg/mL (≈ 116 µM). Further, the IC50 in [2] stood at 300 µM. The compound further gave an inhibition in the assay with Candida tropicalis of 56%.

For the compound `COC(=O)C(C)NP(=O)(OCCN(C)c1cc(=O)oc2cc(C)ccc12)Oc1ccccc1` (stereo not drawn), the minimal inhibitory concentration (MIC) was 128 µg/mL (≈ 270 µM) in the assay on Escherichia coli; 256 µg/mL (≈ 540 µM) against Staphylococcus aureus [1]; 256 µg/mL (≈ 540 µM) against Bacillus spizizenii; 256 µg/mL (≈ 540 µM) with Pseudomonas aeruginosa; 256 µg/mL (≈ 540 µM) against Proteus vulgaris; 128 µg/mL (≈ 270 µM) against Candida albicans. Further, the MIC in the assay with Staphylococcus aureus [3] stood at 128 µg/mL (≈ 270 µM); in the assay on Aspergillus flavus, 64 µg/mL (≈ 135 µM); against Cryptococcus neoformans, 128 µg/mL (≈ 270 µM); in the assay on Aspergillus fumigatus, 128 µg/mL (≈ 270 µM). Moreover, the inhibition with Candida tropicalis is 45%.

Consider `COC(=O)CNP(=O)(OCCN(C)c1cc(=O)oc2ccc(C)cc12)Oc1ccccc1` (stereo not drawn), for which the MIC with Escherichia coli came out at 512 µg/mL (≈ 1110 µM); in the assay with Staphylococcus aureus [1], 256 µg/mL (≈ 556 µM); against Bacillus spizizenii it was 256 µg/mL (≈ 556 µM); against Pseudomonas aeruginosa, 128 µg/mL (≈ 278 µM); with Proteus vulgaris it was 512 µg/mL (≈ 1110 µM); in the assay with Candida albicans it was 128 µg/mL (≈ 278 µM). For the same compound, the MIC with Staphylococcus aureus [3] came out at 256 µg/mL (≈ 556 µM); against Aspergillus flavus, 64 µg/mL (≈ 139 µM); against Cryptococcus neoformans, 64 µg/mL (≈ 139 µM); with Aspergillus fumigatus it was 64 µg/mL (≈ 139 µM). This compound also returned an IC50 in assay [2] of 600 µM. Besides, the inhibition in the assay on Candida tropicalis was found to be 51%.
